Our source for the TGI values is PubChem BioAssay (NCI).

Assay in all cases: NCI anticancer screen, dose series, 48 h
Assay [1] has as its system A549 NSCLC.
Assay [2] has as its system DLD-1 colon.
Assay [3] has as its system KM20L2 colon.
Assay [4] deals with OVCAR-5 ovarian.
Assay [5] deals with RPMI-8226 leukemia.
The test system of assay [6] is SK-OV-3 ovarian.
Assay [7] has as its system SNB-75 CNS.
Assay [8] has as its system UACC-257 melanoma.
Assay [9] deals with XF 498 CNS.
Assay [10] concerns CAKI-1 renal.
For assay [11], the system named is MDA-MB-231 breast.
The test system of assay [12] is NCI/ADR-RES ovarian.

Values joined by “and” are separate entries in the source; they are usually repeats but may differ in a detail not shown here. Equal values may be shown once.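 1) Cells in 96-well plates. 2) Compound, 48 h, 5 concentrations. 3) Linear interpolation between surrounding doses. 4) Unreached endpoint = highest concentration. TGI is the concentration that stops growth completely.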

In the case of `NC1=NS(=O)(=O)N=C(N)C1=Cc1ccc([N+](=O)[O-])o1`, the TGI is greater than 100 µM in assay [1]; 33.7 µM in assay [2]; 31.3 µM in [3]; 32.9 µM in assay [4]; 70 µM in assay [5]; greater than 100 µM in [6]. Besides, the TGI in assay [7] amounted to 29.9 µM; in assay [8] it was 28.9 µM; in assay [9], 32.7 µM.

On to `c1ccc(C2=NN3CN(N2)c2ccccc2OCCCOc2ccccc23)cc1`, for which the TGI in assay [1], in [3], in assay [4], in assay [5], in [7] and in assay [9] was greater than 100 µM each time.

Consider `CC(C)(CN1CCCCC1)C(=O)CC(SCCS(=O)(=O)O)c1ccc(Br)cc1` (centres undefined), for which the TGI was determined as 4.78 µM in [1]; 7.2 µM in assay [10]; 5.73 µM in [2]; 3.53 µM in assay [3]; 9.34 µM in assay [4]; 4.66 µM in [5]. In addition, the TGI was determined as 6.16 µM in assay [7], 11.5 µM in assay [8] and 2.07 µM in [9].

For the compound `Cc1nc2c(n1Cc1ccc(Cl)cc1)C(=O)c1ccccc1C2=O`, the TGI in assay [1], in assay [2], in assay [3], in assay [6], in assay [7] and in assay [8] was greater than 75 µM each time. The compound further came in with a TGI in assay [9] greater than 75 µM.

As for `CCCCN(CCCC)C(=NCc1ccccc1)NC#N`, the TGI in assay [1] is greater than 100 µM; in assay [10], 43.9 µM; in assay [2] it was 47 µM; in assay [3] it was 52.2 µM; in [4], 81.7 µM; in [5], 79.3 µM. Also, the TGI in assay [6] stood at 70.6 µM; in assay [7], 95.2 µM; in assay [8] it was 67.5 µM.

For `O=S1(=O)NNC(=NCc2ccc(F)cc2)c2ccccc21`, the TGI in assay [1], in [10], in assay [2], in [3], in [11] and in assay [12] was greater than 100 µM in each case. Besides, the TGI in assay [4] was greater than 100 µM; in assay [5], greater than 78.8 µM; in assay [6], greater than 100 µM; in assay [8] it was greater than 100 µM; in assay [9] it was greater than 100 µM.

With `Brc1ccc(N2C[N+](c3ccc(Br)cc3)=NC(c3ccccc3)=N2)cc1`, the TGI in assay [1] is 33.6 µM and > 100 µM; in assay [10] it was 33.3 µM and > 100 µM; in assay [2] it was 25.2 µM and > 100 µM; in assay [3] it was 33.8 µM and > 100 µM; in [4] it was 30.2 µM and > 100 µM; in [5] it was 27.7 µM and > 100 µM. Also, the TGI in assay [6] is 34.3 µM and > 100 µM; in [7], 48.4 µM and > 100 µM; in assay [8] it was 31.3 µM and > 100 µM; in [9], 35.5 µM and > 100 µM.

With `Cc1cs/c(=N\C(P(=O)(O)O)P(=O)(O)O)n1C`, the TGI in [1], in assay [10], in assay [11], in assay [12], in [4] and in assay [5] was greater than 100 µM each time. In addition, the TGI in [6], in assay [7] and in [8] was greater than 100 µM in each case.

For the compound `Cc1ncc([N+](=O)[O-])n1CCN=[N+]=[N-]`, the TGI in [1], in assay [10], in assay [11], in [12], in assay [4] and in assay [5] was greater than 100 µM in each case. Also, the TGI in assay [6], in assay [7] and in assay [8] was greater than 100 µM throughout.

As to `Cc1cc(S(=O)(=O)Nc2n[nH]c(Nc3ccccc3)n2)c(S)cc1Cl`, the TGI in assay [1], in assay [10], in [11], in [12], in assay [4] and in [5] was greater than 10 µM in each case. Also, the TGI in [6], in assay [7] and in [8] was greater than 10 µM in each case.

As for `Oc1ccc(-c2c3c(nc4c2CCc2ccc(Br)cc2-4)-c2cc(Br)ccc2CC3)cc1`, the TGI came out at 40.8 µM in assay [1]; 33 µM in assay [10]; 34.5 µM in [11]; 46 µM in assay [12]; 40.6 µM in [4]; 77.3 µM in assay [5]. Further, the figures for the TGI in assay [6], in assay [7] and in assay [8] were 30.6 µM, 54.9 µM and 69.4 µM, respectively.

On to `COC(=O)Cc1c(C2=Nc3ccccc3C2(O)CC(=O)OC)[nH]c2ccccc12` (centres undefined), for which the TGI is greater than 100 µM in assay [1]; 71 µM in assay [10]; greater than 100 µM in assay [11]; greater than 100 µM in [12]; greater than 100 µM in [4]; greater than 100 µM in assay [5]. In addition, the TGI in assay [6], in [7] and in [8] was greater than 100 µM throughout.

For the compound `O=C(c1cccs1)N(C(=S)N1CCN(c2ccccc2)CC1)c1ccccc1`, the TGI in assay [1], in assay [10], in assay [2], in [3], in [4] and in [5] was greater than 100 µM throughout. In addition, the TGI in [6], in [7] and in [8] was greater than 100 µM throughout.

For the compound `Cc1cnc(Cl)nc1C(C#N)c1nc2ccccc2n1C` (centres undefined), the TGI in assay [1], in [10], in assay [11], in [12], in [4] and in assay [5] was greater than 100 µM throughout. The TGI in assay [6] is greater than 100 µM; in assay [7] it was 69.3 µM; in [8], greater than 100 µM.
